≈ marks a conversion by molar mass, not a printed value.
Columns and labels:
[1] = Solubility in double-distilled water; type: physicochemical; settings: double-distilled water
Procedure: Physical characteristics of AMB derivatives and of AMB were tested, including solubility.

Aspergillus flavus = assay: MIC/MFC broth dilution (CLSI), clinical isolates; type: cell-based; settings: A. Flavus, 3 isolates, 48 h at 37° C.
Procedure: (§1) Isolates of Aspergillus fumigatus, Aspergillus flavus, Aspergillus terreus Aspergillus niger, Rhizopus oryzae, Candida albicans and Candida krusei were isolated from patients in Israeli hospitals and used for in vitro efficacy studies.
(§2) Efficacy was evaluated by measuring minimum inhibitory concentration (MIC) and minimum fungicidal concentration (MFC) values for fungal isolates. Testing of isolates was performed according to the Clinical & Laboratory Standards Institute (CLSI) method. (CLSI. 2008. M27-A3 Reference method for broth dilution antifungal susceptibility testing of yeasts; Approved Standard—3rd edition. Clinical and Laboratory Standards Institute, Wayne). RPMI MOPS media was used throughout the experiment as growth and dilution media. Spores and yeast cells were harvested in 0.05% Tween from 24-48 h and cultures were grown in rich yeast extract-agar-glucose (YAG) medium (composed of: 0.5% w/v yeast extract, 1% w/v glucose, 10 millimolar (mM) MgCl2, supplemented with 0.1% v/v trace elements solution, and 0.2% v/v vitamin mix). The spores and the yeast cells were counted and diluted to a final concentration of 2.5×10^4 per ml. A stock solution of 5 mg/ml was prepared in dimethylsulfoxide for free AMB. Compounds 4 and 6 were prepared in sterile saline. Double dilutions of each drug were performed in 100 μL volume of RPMI-MOPS in 96 well plates beginning with a final concentration of 32 micrograms (μg)/well of each drug to 0.06 μg/well. 2500 spores or yeast cells were added to each well. Results were recorded 48 h post incubation at 37° C. […] The MFC was defined as the lowest drug concentration that yielded three or fewer colonies (i.e. 99% of the inoculum was killed).

Aspergillus fumigatus = assay: MIC/MFC broth dilution (CLSI), clinical isolates; type: cell-based; settings: A. fumigatus, 4 isolates, 48 h at 37° C.
Procedure: as §1, §2

Aspergillus niger = assay: MIC/MFC broth dilution (CLSI), clinical isolates; type: cell-based; settings: A. niger, 3 isolates, 48 h at 37° C.
Procedure: as §1, §2

Aspergillus terreus = assay: MIC/MFC broth dilution (CLSI), clinical isolates; type: cell-based; settings: listed as printed C. terreus, 1 isolate, 48 h at 37° C.
Procedure: as §1, §2

Candida albicans = assay: MIC/MFC broth dilution (CLSI), clinical isolates; type: cell-based; settings: C. albicans, 2 isolates, 48 h at 37° C.
Procedure: as §1, §2

Candida krusei = assay: MIC/MFC broth dilution (CLSI), clinical isolates; type: cell-based; settings: C. krusei, 3 isolates, 48 h at 37° C.
Procedure: as §1, §2

Rhizopus oryzae = assay: MIC/MFC broth dilution (CLSI), clinical isolates; type: cell-based; settings: 1 isolate, 48 h at 37° C.
Procedure: as §1, §2

A. fumigatus (Af 293) = assay: MIC of compound 6, AMB and FMOC-6; type: cell-based, Aspergillus fumigatus
Procedure: as §2
(§3) In addition, the amine protected equivalent of compound 6 in which the amine of compound 6 was protected with an FMOC group was tested (designated FMOC-6) to determine MIC versus AMB and versus compound 6 against A. fumigatus (Af 293) and C. albicans (CBS562).

C. albicans (CBS562) = assay: MIC of compound 6, AMB and FMOC-6; type: cell-based, Candida albicans
Procedure: as §2, §3

C. albicans = assay: Fungal burden in kidneys of infected mice; type: in vivo; settings: AMB 1 mg/kg; Compound 6 1.75, 3.5 and 7 mg/kg
Procedure: Reference is made to FIGS. 6A-E. ICR female mice were inoculated with C. albicans in groups of 3 as described in example 6B and were killed 48 hours later for assessment of fungal burden. One kidney and the spleen were removed aseptically from each animal and homogenized in 1 mL of sterile normal saline. Serial 10-fold dilutions of the homogenates were spread on YAG plates, and colony-forming units (CFU)/organ was determined from the colony count after 24 hours incubation at 37° C. All mouse experiments were performed in duplicates.
At necropsy, fungal burden in mouse tissues was evaluated. […] FIGS. 6C-E show micrographs of mice treated with Compound 6 at dosages of 1.75 mg/kg, 3.5 mg/kg and 7 mg/kg, respectively.

[2] = Solubility in 0.9% saline after vortex, sonication and centrifuge; type: physicochemical
[3] = Stability (hydrolysis) in phosphate buffered saline; type: physicochemical

Compound	Solubility [1] [µg/mL]	MFC (Aspergillus flavus) [µg/mL]	MIC (Aspergillus flavus) [µg/mL]	MFC (Aspergillus fumigatus) [µg/mL]	MIC (Aspergillus fumigatus) [µg/mL]	MFC (Aspergillus niger) [µg/mL]	MIC (Aspergillus niger) [µg/mL]	MFC (Aspergillus terreus) [µg/mL]	MIC (Aspergillus terreus) [µg/mL]	MFC (Candida albicans) [µg/mL]	MIC (Candida albicans) [µg/mL]	MFC (Candida krusei) [µg/mL]	MIC (Candida krusei) [µg/mL]	MFC (Rhizopus oryzae) [µg/mL]	MIC (Rhizopus oryzae) [µg/mL]	MIC (A. fumigatus (Af 293)) [µg/mL]	MIC (C. albicans (CBS562)) [µg/mL]	fungal hyphae in kidney sections (Fontana-Masson silver staining) (C. albicans)	also measured
C[C@@H]1[C@H](O)[C@@H](C)/C=C/C=C/C=C/C=C/C=C/C=C/C=C/[C@H](O[C@@H]2O[C@H](C)[C@@H](O)[C@H](N)[C@@H]2O)C[C@@H]2O[C@](O)(C[C@@H](O)C[C@@H](O)[C@H](O)CC[C@@H](O)C[C@@H](O)CC(=O)O[C@H]1C)C[C@H](O)[C@H]2C(=O)O [AMB, Amphotericin B]	<1	0.5 to 1	0.5 to 1	0.5 to 4	0.25 to 1	0.5 to 1	0.5 to 1	4 (≈ 4.33 µM)	2 (≈ 2.16 µM)	0.5 (≈ 0.541 µM)	0.25 (≈ 0.271 µM)	1 to 2	0.5 (≈ 0.541 µM)	0.25 (≈ 0.271 µM)	0.25 (≈ 0.271 µM)	0.5	0.25	barely detectable	–
COC(=O)C1C(O)CC2(O)CC(O)CC(O)C(O)CCC(O)CC(O)CC(=O)OC(C)C(C)C(O)C(C)C=CC=CC=CC=CC=CC=CC=CC(OC3OC(C)C(O)C(NC(=O)CCOCCOCCOCCOCCOCCOCCOCCOCCN)C3O)CC1O2 (stereo not drawn) [Compound 6, amphotericin B amide, methyl ester-PEG(8)-amine]	700 (≈ 514 µM)	2 to 4	2 to 4	2 to 8	1 to 8	2 (≈ 1.47 µM)	2 (≈ 1.47 µM)	16 (≈ 11.8 µM)	16 (≈ 11.8 µM)	2 (≈ 1.47 µM)	1 (≈ 0.734 µM)	4 (≈ 2.94 µM)	2 (≈ 1.47 µM)	4 (≈ 2.94 µM)	4 (≈ 2.94 µM)	2	2	barely detectable	increased solubility relative to corresponding non-PEG-conjugated AMB compounds [2]: greater than 700 fold; hydrolysis after 4 hours ([3]; 4 hours): no hydrolysis could be observed; level of hydrolysis after 24 hours ([3]; 24 hours): 0.8%
